Measurements published in ChEMBL document CHEMBL3232928, “Fragment-to-hit-to-lead discovery of a novel pyridylurea scaffold of ATP competitive dual targeting type II topoisomerase inhibiting antibacterial agents” (J Med Chem, 2013).
Values after ≈ are worked out from the molar mass of the structure shown. Values belong to the molecule of their own block, whether it stands above or below them.

Experiments:
[1] = target: DNA gyrase subunit B (Staphylococcus aureus, UniProt P0A0K8); assay: Inhibition of ATPase activity in Staphylococcus aureus GyrB tetramer in presence of Escherichia coli GyrA by ammonium molybdate/malachite green-based absorbance assay
[2] = Inhibition of ATPase activity in Escherichia coli GyrA/GyrB by ammonium molybdate/malachite green-based absorbance assay
[3] = Inhibition of ATPase activity in Escherichia coli ParC/ParE by ammonium molybdate/malachite green-based absorbance assay
[4] = Inhibition of ATPase activity in Escherichia coli ParE by ammonium molybdate/malachite green-based absorbance assay
[5] = Antibacterial activity against Streptococcus pneumoniae D39 NCTC 7466 assessed as growth inhibition after 18 to 24 hrs by CLSI broth microdilution method; format: functional
[6] = tested on: Staphylococcus aureus; assay: Antibacterial activity against methicillin-sensitive wild type Staphylococcus aureus assessed as growth inhibition after 18 to 24 hrs by CLSI broth microdilution method; format: functional
[7] = Antibacterial activity against wild type Haemophilus influenzae Rd KW20 ATCC 51907 assessed as growth inhibition after 18 to 24 hrs by CLSI broth microdilution method; format: functional
[8] = tested on: Escherichia coli; assay: Antibacterial activity against wild type Escherichia coli W3110 assessed as growth inhibition after 18 to 24 hrs by CLSI broth microdilution method; format: functional
[9] = tested on: Escherichia coli; assay: Antibacterial activity against tolC efflux pump deficient Escherichia coli W3110 assessed as growth inhibition after 18 to 24 hrs by CLSI broth microdilution method; format: functional
[10] = Octanol-phosphate buffer partition coefficient, log D of the compound at pH 7.4 after 1 hr by shake flask method; format: physicochemical
[11] = Solubility of the compound; format: physicochemical
[12] = Unbound fraction in human at 10 uM after 16 hrs by LC-MS/MS analysis; format: ADME; settings: plasma
[13] = tested on: Staphylococcus aureus; assay: Antibacterial activity against methicillin-resistant and […] Staphylococcus aureus assessed as growth inhibition after 18 to 24 hrs by CLSI broth microdilution method; format: functional
[14] = tested on: Moraxella catarrhalis; assay: Antibacterial activity against wild type Moraxella catarrhalis ATCC 43617 assessed as growth inhibition after 18 to 24 hrs by CLSI broth microdilution method; format: functional
[15] = Clearance in rat plasma at 10 mg/kg, iv administered 15 mins of infusion measured for 0 to 24 hrs by LC-MS/MS analysis; format: ADME, organism-based; set-up: dose 10 mg/kg, route intravenous
[16] = Volume of distribution at steady state in rat plasma at 10 mg/kg, iv administered 15 mins of infusion measured for 0 to 24 hrs by LC-MS/MS analysis; format: ADME, organism-based; set-up: dose 10 mg/kg, route intravenous; settings: read-out: Vdss

Compound: CCNC(=O)Nc1cc(-c2nc(C(F)(F)F)cs2)c(-c2cncc(-c3c(C)noc3C)c2)cn1
IC50 [1]: 0.3 µM | IC50 [2]: 0.068 µM | IC50 [3]: 4.8 µM | IC50 [4]: 0.053 µM | MIC [5]: 4.6 µg/mL (≈ 9.42 µM) | MIC [6]: > 9 µg/mL | MIC [7]: > 9 µg/mL | MIC [8]: > 9 µg/mL | MIC [9]: > 9 µg/mL | logD at 1 h [10]: 3.5 | solubility [11]: 6 µM (≈ 2.93 µg/mL) | fraction unbound at 16 h, 10 µM [12]: 0.045

IC50 [1]: 32 µM
Compound: CCNC(=O)Nc1ccccn1

IC50 [1]: 64 µM
Compound: CCNC(=O)Nc1nc2ccccc2[nH]1

Compound: CCNC(=O)Nc1ccc(-c2ncc(C(N)=O)s2)cn1
IC50 [1]: 0.55 µM | IC50 [2]: 0.56 µM | IC50 [3]: 27 µM | IC50 [4]: 0.38 µM | MIC [5]: 4 µg/mL (≈ 13.7 µM) | MIC [6]: 64 µg/mL (≈ 220 µM) | MIC [13]: > 64 µg/mL | MIC [14]: 8 µg/mL (≈ 27.5 µM) | MIC [7]: 32 µg/mL (≈ 110 µM) | MIC [8]: > 64 µg/mL | MIC [9]: 16 µg/mL (≈ 54.9 µM)

IC50 [1]: 38 µM
Compound: CCN(CC)C(=O)Nc1ccccn1

Compound: CCNC(=O)Nc1cc(Cl)c(-c2cncc(C(=O)O)c2)cn1
IC50 [1]: 0.13 µM | IC50 [2]: 0.058 µM | IC50 [3]: 4.3 µM | IC50 [4]: 0.022 µM | MIC [5]: 4 µg/mL (≈ 12.5 µM) | MIC [6]: > 64 µg/mL | MIC [14]: > 64 µg/mL | MIC [7]: > 64 µg/mL | MIC [8]: > 64 µg/mL | MIC [9]: > 64 µg/mL | logD at 1 h [10]: -1.1

Compound: CCNC(=O)Nc1cc(-c2nc(C(F)(F)F)cs2)c(-c2cncc(-c3nc(C)no3)c2)cn1
IC50 [1]: 0.052 µM | IC50 [2]: < 0.01 µM | IC50 [3]: 1.4 µM | IC50 [4]: 0.025 µM | MIC [5]: < 0.095 µg/mL | MIC [6]: 0.37 µg/mL (≈ 0.778 µM) | MIC [13]: 0.19 µg/mL (≈ 0.4 µM) | MIC [14]: 0.74 µg/mL (≈ 1.56 µM) | MIC [7]: > 64 µg/mL | MIC [8]: > 64 µg/mL | MIC [9]: 0.74 µg/mL (≈ 1.56 µM) | logD at 1 h [10]: 3.4 | solubility [11]: < 1 µM | fraction unbound at 16 h, 10 µM [12]: 0.063 | clearance [15]: 100 mL/min/kg | Vd [16]: 11 L/kg

Compound: CCNC(=O)Nc1cc(-c2noc(C)n2)c(-c2cncc(C(=O)O)c2)cn1
IC50 [4]: 0.15 µM | MIC [5]: > 64 µg/mL | MIC [6]: > 64 µg/mL | MIC [7]: > 64 µg/mL | MIC [8]: > 64 µg/mL | MIC [9]: > 64 µg/mL | logD at 1 h [10]: -2.1

Compound: CCNC(=O)Nc1ccc(-c2ccc(C(=O)O)cc2)cn1
IC50 [1]: 0.88 µM | IC50 [2]: 1.6 µM | IC50 [3]: 28 µM | IC50 [4]: 0.054 µM | MIC [6]: > 64 µg/mL | MIC [14]: 4 µg/mL (≈ 14 µM) | MIC [7]: 16 µg/mL (≈ 56.1 µM) | MIC [8]: > 64 µg/mL | MIC [9]: 16 µg/mL (≈ 56.1 µM)

Compound: CCNC(=O)Nc1cc(-c2nc(C(F)(F)F)cs2)c(-c2cncc(C#N)c2)cn1
IC50 [1]: < 0.01 µM | IC50 [2]: < 0.01 µM | IC50 [3]: 1.1 µM | IC50 [4]: < 0.01 µM | MIC [5]: < 0.084 µg/mL | MIC [6]: 0.33 µg/mL (≈ 0.789 µM) | MIC [13]: 0.23 µg/mL (≈ 0.55 µM) | MIC [14]: 0.33 µg/mL (≈ 0.789 µM) | MIC [7]: 21 µg/mL (≈ 50.2 µM) | MIC [8]: > 64 µg/mL | MIC [9]: 0.33 µg/mL (≈ 0.789 µM) | logD at 1 h [10]: 2.8 | solubility [11]: 7 µM (≈ 2.93 µg/mL) | fraction unbound at 16 h, 10 µM [12]: 0.059 | clearance [15]: 110 mL/min/kg | Vd [16]: 3.4 L/kg

IC50 [1]: 80 µM
Compound: CCNC(=O)Nc1ncccn1

Compound: CCNC(=O)Nc1cc(-c2nc(C(F)(F)F)cs2)c(-c2cncc(-c3nnc(C)o3)c2)cn1
IC50 [1]: < 0.01 µM | IC50 [2]: < 0.01 µM | IC50 [3]: 0.51 µM | IC50 [4]: 0.015 µM | MIC [5]: 0.05 µg/mL (≈ 0.105 µM) | MIC [6]: 0.19 µg/mL (≈ 0.4 µM) | MIC [13]: 0.26 µg/mL (≈ 0.547 µM) | MIC [14]: 0.37 µg/mL (≈ 0.778 µM) | MIC [7]: 33 µg/mL (≈ 69.4 µM) | MIC [8]: > 64 µg/mL | MIC [9]: 0.26 µg/mL (≈ 0.547 µM) | logD at 1 h [10]: 2.4 | solubility [11]: 1 µM (≈ 0.475 µg/mL) | fraction unbound at 16 h, 10 µM [12]: 0.11 | clearance [15]: 123 mL/min/kg | Vd [16]: 3.3 L/kg

Compound: CCNC(=O)Nc1ccc(Oc2cccc(C(=O)O)c2)cn1
IC50 [1]: 9.9 µM | IC50 [2]: 4.4 µM | IC50 [3]: > 200 µM | IC50 [4]: 16 µM | MIC [5]: > 64 µg/mL | MIC [6]: > 64 µg/mL | MIC [14]: > 64 µg/mL | MIC [7]: > 64 µg/mL | MIC [8]: > 64 µg/mL | MIC [9]: > 64 µg/mL

Compound: CCNC(=O)Nc1cc(-c2nc(C(C)(C)C)cs2)c(-c2cncc(C(=O)O)c2)cn1
IC50 [1]: 0.03 µM | IC50 [2]: 0.012 µM | IC50 [3]: 2.3 µM | IC50 [4]: 0.072 µM | MIC [5]: 0.66 µg/mL (≈ 1.55 µM) | MIC [6]: > 64 µg/mL | MIC [14]: 43 µg/mL (≈ 101 µM) | MIC [7]: 43 µg/mL (≈ 101 µM) | MIC [8]: > 64 µg/mL | MIC [9]: 11 µg/mL (≈ 25.9 µM) | logD at 1 h [10]: 0.12

Compound: CCNC(=O)Nc1ccc(-c2cncc(C(=O)O)c2)cn1
IC50 [2]: 1.4 µM | IC50 [3]: 24 µM | IC50 [4]: 0.4 µM | MIC [5]: > 64 µg/mL | MIC [6]: > 64 µg/mL | MIC [14]: > 64 µg/mL | MIC [7]: > 64 µg/mL | MIC [8]: > 64 µg/mL | MIC [9]: > 64 µg/mL

IC50 [1]: 350 µM
Compound: C#CCNC(=O)Nc1ccccn1

Compound: CCNC(=O)Nc1ccc(-c2ncc(C(=O)O)s2)cn1
IC50 [1]: 0.27 µM | IC50 [2]: 0.24 µM | IC50 [3]: 8.8 µM | IC50 [4]: 0.11 µM | MIC [5]: 64 µg/mL (≈ 219 µM) | MIC [6]: > 64 µg/mL | MIC [14]: > 64 µg/mL | MIC [7]: > 64 µg/mL | MIC [8]: > 64 µg/mL

IC50 [1]: 1000 µM
Compound: O=C(Nc1ccccn1)NC1CC1
